Test results from ChEMBL document CHEMBL1128408, “Further evidence supporting the importance of and the restrictions on a carbon-centered radical for high antimalarial activity of 1,2,4-trioxanes like artemisinin” (J Med Chem, 1995).
≈ marks a conversion by molar mass, not a printed value.

Test system: Plasmodium falciparum
Assay: In vitro inhibitory activity against Chloroquine-sensitive Plasmodium falciparum NF54 as [3H]hypoxanthine incorporation
Assay type: functional, organism-based
[1] = Plasmodium falciparum, read-out: IC50

Row | SMILES | IC50 [1] [µg/mL] | IC50 [µg/mL]
1 | CO[C@H]1O[C@]2(C)OO[C@]13[C@H](CCO)CCC[C@@H]3C[C@@H]2C | 0.36 (≈ 1.26 µM) | 
2 | C[C@@H]1CC[C@H]2[C@@H](C)C(=O)O[C@@H]3O[C@@]4(C)CC[C@@H]1[C@]32OO4 [ARTEMISININ] | 0.003 (≈ 0.0106 µM) | 
3 | CO[C@H]1O[C@]2(C)OO[C@]13CCCC[C@@H]3C[C@H]2Cc1ccccc1 | 0.098 (≈ 0.308 µM) | 
4 | CO[C@H]1O[C@]2(C)OO[C@]13[C@H](CCO)CCC[C@@H]3C[C@@H]2Cc1ccccc1 | 0.6 (≈ 1.66 µM) | 
5 | CO[C@H]1O[C@]2(C)OO[C@]13[C@H](CCO)CCC[C@@H]3C[C@H]2Cc1ccccc1 | 0.003 (≈ 0.00828 µM) | 
6 | CO[C@H]1O[C@]2(C)OO[C@]13CCCC[C@@H]3C[C@H]2c1ccccc1 | 0.61 (≈ 2 µM) | 
7 | CO[C@H]1O[C@@]2(C)CC[C@H]3CCC[C@@H](CCO)[C@]31OO2 | 0.034 (≈ 0.125 µM) | 0.034 (≈ 0.125 µM)
8 | CO[C@H]1O[C@]2(C)OO[C@]13[C@H](CCO)CCC[C@@H]3C[C@H]2C | 0.0022 (≈ 0.00768 µM) | 
9 | CO[C@H]1O[C@]2(C)OO[C@]13[C@H](CCO)CCC[C@@H]3C[C@H]2C[Si](C)(C)C | 0.086 (≈ 0.24 µM) | 
10 | CO[C@H]1O[C@]2(C)OO[C@]13[C@H](CCO)CCC[C@@H]3C[C@@H]2C[Si](C)(C)C | > 1 | 
11 | CO[C@H]1O[C@@]2(C)CC[C@H]3CCCC[C@]31OO2 | 0.22 (≈ 0.964 µM) | 
